Measured values: patent US12600729B2, “New-type benzazepine fused ring derivative” (SHANGHAI JEYOU PHARMACEUTICAL CO., LTD., priority 2021, dated 2026)
Where two headings read alike, the source gives them in different places.

What was measured:
[1] = biological target: T1, human vasopressin receptor V2R (Homo sapiens, UniProt P30518); assay: Inhibition of vasopressin-induced activation of V2R (cAMP HTRF in HeLa-V2R cells); format: cell-based; settings: AVP 2.25 nM, read-out: IC50, inhibition of cAMP increase in human cervical cancer cells (Human V2R Hela-Stable cell line OE2)
T1 construct: host or cells: HeLa (lentivirus infection, puromycin selection)
Procedure: HeLa-V2R cells were incubated with DMEM medium supplemented with 10% fetal bovine serum under the condition of 37° C. and 5% CO2, and the medium was added with 2 μg/mL puromycin to continuously screen cells expressing V2R. On the day of the experiment, the cells were digested with trypsin, washed twice with the stimulation buffer in the cAMP-GS HIRANGE kit, resuspended, and counted to prepare 1.6×10^6 cells/mL, and IBMX was added until a final concentration of 0.5 mM. 5 μL of cell suspension/well was transferred to a 384-well plate. To the corresponding wells were added 2.5 μL of various concentrations of the test compounds (3-fold dilution from 10 μM, 10 concentration gradients) or DMSO (minimum value Min, maximum value Max as a control), respectively. […]. At the same time, cAMP standard samples (3-fold dilution from 5.6 μM, 10 concentration points) were prepared, and 10 μL of cAMP standard samples were transferred to corresponding wells of a 384-well plate. The cAMP-d2 fluorescence and anti-cAMP antibody probes provided in the kit were 20-fold diluted by the lysis buffer in the cAMP-GS HIRANGE kit. To each well of a 384-well plate was sequentially added 5 μL of each diluted reagent. The above mixture in each well was mixed well, centrifuged briefly, incubated at 25° C. for 2 hours, and tested. The sample was tested by the HTRF method with the Envision microplate reader to determine the fluorescence intensity at 615 nm and 665 nm. Each test sample was tested in duplicate, with 32 replicates for both Min and Max, respectively.
The fluorescence intensity ratio FI665/615 at the wavelength of 665 nm and 615 nm of the samples in each well was calculated. The logarithm of the concentration of the standard was taken as X, and FI665/615×1000 as the Y value, and the standard curve was obtained by fitting the “log(inhibitor) vs response-variable slope (four parameters)” model in Prism 8.0 software. FI665/615×1000 of the test well was taken as the Y value, and the cAMP concentration corresponding to each sample was calculated in the Prism 8.0 software according to the above standard curve.
% Inhibition (inhibition percentage) calculation formula is as follows: % inhibition=(Cmax−Ccmpd)/(Cmax−Cmin)×100
wherein Cmax is the average calculated value of cAMP concentration in all maximum wells; Cmin is the average calculated value of cAMP concentration in all minimum wells; Ccmpd is the calculated value of cAMP concentration of the test compound.
% Inhibition (inhibition percentage) was taken as the Y value, and the logarithmic value of the compound concentration was taken as the X value, and the IC50 was calculated by nonlinear regression with “log(inhibitor) vs response-variable slope (four parameters)” model in Prism 8.0 software, wherein Y=Bottom+(Top−Bottom)/(1+10^((Log IC50−X)×Hill Slope)).

LLC-PK1 cells = assay: AVP-induced LLC-PK1 cell proliferation assay; format: cell-based, Porcine; parameters: Proliferation inhibition grading, Repeated experiment I / Proliferation inhibition grading, Repeated experiment II: key to the marks not given beside the values; settings: for Proliferation inhibition grading, Repeated experiment I / Proliferation inhibition grading, Repeated experiment II: LLC-PK1, AVP 10 nM, verapamil 5 μM, graded against Tolvaptan; for hook effect in AVP-induced LLC-PK1 cell proliferation: high concentration, up to 3 μM
Procedure: Porcine renal epithelial cell LLC-PK1: purchased from ATCC, Cat #CL-101 The pathogenesis of polycystic kidney disease is related to the low intracellular calcium ion concentration of renal collecting duct epithelial cells and the cAMP-dependent excessive proliferation of cells. […] LLC-PK1 cells were incubated with M199 medium supplemented with 10% fetal bovine serum under the condition of 37° C. and 5% CO2. On the first day of the experiment, a 96-well plate was coated with 0.01% Poly-D-lysine, then each well of the plate was added with 100 μL of the above mixture. After standing at room temperature for 10 minutes, the mixture in each well was aspirated and air-dried at room temperature for 1 hour, and washed once with 200 μL 1×PBS for further use. LLC-PK1 cells were digested with trypsin, resuspended with serum-free M199 after centrifugation, counted, diluted into 1×10^5/mL cell suspension with serum-free M199 medium, and added with FBS until 1% final concentration. To a 96-well plate was transfered 200 μL of cell suspension/well. After the cells were incubated for 24 hours, the supernatant of the formulated solution was aspirated, and the cells were washed once with 200 μL of PBS. Then 160 μL of M199 medium containing 0.05% FBS and 20 μL of 10×Verapamil (final concentration of 5 μM) were sequentially added thereto, and the culture was continued for 24 hours. To the corresponding wells was respectively added 10 μL of various concentrations of the test compound (final concentration starting from 3 μM, 3-fold dilution, 8 concentration gradients) or DMSO (Min, and Max as a control) on the third day. […] On the fifth day, the culture medium was carefully aspirated. The cells were washed once with 200 μL of PBS. 90 μL of M199 serum-free medium was carefully added thereto, and then 10 μL of Alamarblue reagent was added thereto. The mixture was centrifuged at 300 rpm for 1 minute, incubated at 37° C. for 2 hours, and then tested. SpectraMax instrument was used for the sample test. The excitation light was 560 nm, and the emission light was 595 nm. Each test sample was tested in triplicate, with 6 replicates for both Min and Max, respectively. The concentration of the compound was taken as the X value, and the average value of the fluorescence intensity of each experimental well sample minus the fluorescence intensity of the background well was taken as the Y value, which represented the number of living cells in the well at the time of testing. The Grouped-Summary data-Separated bar graph in GraphPad Prism 8.0 software was used to make a bar chart for reflecting the dose-effect relationship of different compounds on AVP-induced cell proliferation. […] Data quality control: […]

human V1bR = biological target: T2, human V1bR (Homo sapiens, UniProt P47901); assay: Competitive isotope ligand binding, V1b receptor
T2 construct: purchased Perkinelmer, USA
T2 sequence (P47901 1-424): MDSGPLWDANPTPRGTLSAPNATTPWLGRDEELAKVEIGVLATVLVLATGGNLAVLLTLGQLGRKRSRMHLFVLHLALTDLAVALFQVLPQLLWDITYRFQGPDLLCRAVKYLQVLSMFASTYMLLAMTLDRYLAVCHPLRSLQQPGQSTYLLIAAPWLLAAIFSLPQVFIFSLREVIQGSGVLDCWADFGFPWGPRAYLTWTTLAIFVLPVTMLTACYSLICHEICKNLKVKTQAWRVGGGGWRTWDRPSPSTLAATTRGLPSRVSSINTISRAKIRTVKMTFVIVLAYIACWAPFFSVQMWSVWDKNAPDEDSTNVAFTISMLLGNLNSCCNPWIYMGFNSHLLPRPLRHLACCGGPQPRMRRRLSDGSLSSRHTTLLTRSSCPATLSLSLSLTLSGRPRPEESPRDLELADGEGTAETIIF
Procedure: (§1) The cells with high expression of human V1a receptor were amplified, collected, washed twice with PBS, resuspended with PBS containing a protease inhibitor, homogenized with a homogenizer at 15000 r/min to break the cells, and centrifuged at 4° C. and 3000 r/min for 15 minutes. The supernatant was collected, centrifuged at 20,000 r/min at 4° C. for 45 minutes. Then the supernatant was discarded to obtain a cell membrane precipitation. Buffer was added to resuspend to measure the protein concentration, aliquoted, and stored at −80° C. The cell membranes of highly expressed human V1b and V2 receptors were purchased from Perkinelmer, USA.
(§2) The stock solution of the test compound and that of the positive control were diluted to 1 mM (10-fold dilution) and 0.1 mM (100-fold dilution) with DMSO, respectively, and then sequentially subjected to a four-fold dilution with DMSO to the tenth point.
(§3) Cell membranes overexpressing human receptors were prepared with assay buffer to 5 mg/mL.
(§4) • 1. 1 μL of the compound was aspirated from the dilution plate into each well of the 96-well assay plate (the concentration of the test compound in the reaction would be diluted 100-fold). To the control well was added 1 μL of DMSO. • 2. 10 mL of membrane solution containing 5 μg/μL was prepared. • 3. To the compound assay plate was added the membrane solution from step 2 with a pipette, and each well was added with 89 μL of the membrane solution. • 4. […] The configured test plate was placed at 30° C. and incubated for 60 minutes. • 6. The membrane complexes were collected into 0.5% PEI pre-coated GF/B plate with Cell Harvester, washed 3 times with 2 mL of pre-cooled elution buffer at 4° C., and dried at 37° C. for 2 hours. • 7.
(§5) Y=Bottom+(Top−Bottom)/(1+10^((X−Log IC50))), wherein: Y is the reading value of the liquid scintillation counter, and X is the logarithmic value of the compound concentration.

[2] = In vivo pharmacokinetics in mice, oral administration; settings: male CD1 mice, oral 10 mg/kg; for AUC(0-inf) / Cmax / half-life: mouse, plasma
Procedure: In this experimental example, in vivo pharmacokinetic evaluations were performed on mice by intravenous injection and oral administration.
Experimental methods and conditions: Male CD1 mice, 6 to 8 weeks old with free access to food and water, were administered by oral gavage with a dosage of 10 mg/kg (solvent 5% DMSO/10% Solutol/85% Saline). 15 minutes, 30 minutes, 1 hour, 2 hours, 4 hours, 8 hours, 10 hours, 24 hours after administration, blood samples were collected. Each sample was collected in a volume of 150 μL and anticoagulated with heparin sodium, placed on ice after collection, and centrifuged within 1 hour to separate the test plasma. The plasma concentration in plasma was tested by liquid chromatography-tandem mass spectrometry (LC/MS/MS), and pharmacokinetic parameters were calculated using Phoenix WinNonlin software via the measured concentration.

human V1aR = biological target: T3, human V1aR (Homo sapiens, UniProt P37288); assay: Competitive isotope ligand binding, V1a receptor
T3 construct: expressed in transfected cells; membranes prepared in house
Procedure: as §1, §2, §3, §4, §5

human V2R = biological target: T4, human V2R (Homo sapiens, UniProt P30518); assay: Competitive isotope ligand binding, V2 receptor
T4 construct: purchased Perkinelmer, USA
Procedure: as §1, §2, §3, §4, §5

[3] = read-out: Binding affinity V1bR, N = 2, isotope-labeled vasopressin […], experiment 2, bound printed in μM

T1 sequence (P30518 whole entry): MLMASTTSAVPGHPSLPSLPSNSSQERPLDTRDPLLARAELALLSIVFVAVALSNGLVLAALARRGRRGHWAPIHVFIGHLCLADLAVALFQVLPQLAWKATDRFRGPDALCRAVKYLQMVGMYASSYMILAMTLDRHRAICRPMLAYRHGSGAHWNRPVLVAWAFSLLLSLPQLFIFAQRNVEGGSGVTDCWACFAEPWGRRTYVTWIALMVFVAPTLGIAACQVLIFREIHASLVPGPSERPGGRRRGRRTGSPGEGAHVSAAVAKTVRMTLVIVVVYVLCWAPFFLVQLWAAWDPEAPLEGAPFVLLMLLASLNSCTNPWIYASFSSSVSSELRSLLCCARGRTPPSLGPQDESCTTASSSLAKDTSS
T4 sequence (P30518 whole entry): as above
T3 sequence (P37288 whole entry): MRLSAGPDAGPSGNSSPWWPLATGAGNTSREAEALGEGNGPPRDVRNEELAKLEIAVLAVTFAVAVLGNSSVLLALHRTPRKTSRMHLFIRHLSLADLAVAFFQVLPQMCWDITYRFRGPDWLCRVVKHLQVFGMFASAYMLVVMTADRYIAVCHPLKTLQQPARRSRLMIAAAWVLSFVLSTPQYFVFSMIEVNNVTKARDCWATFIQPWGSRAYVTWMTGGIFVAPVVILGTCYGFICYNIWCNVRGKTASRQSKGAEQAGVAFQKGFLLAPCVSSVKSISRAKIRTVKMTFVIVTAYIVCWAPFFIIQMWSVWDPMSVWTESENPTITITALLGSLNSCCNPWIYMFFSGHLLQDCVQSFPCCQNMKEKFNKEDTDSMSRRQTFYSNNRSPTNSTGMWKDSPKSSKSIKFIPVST

Work on Cc1ccccc1C(=O)Nc1ccc(C(=O)N2CCC3CCOC3c3cc(Cl)ccc32)c(C)c1 (single isomer, unassigned) [Compound 5] yielded an IC50 [1] of 0.0616 µM.
For O=C(Nc1ccc(C(=O)N2CCC3CCNC3c3cc(Cl)ccc32)cn1)c1ccccc1C(F)(F)F (stereo not drawn) [Compound 8], the IC50 [1] was 0.0695 µM.
For Cc1ccccc1C(=O)Nc1ccc(C(=O)N2CCCC(O)c3cc(Cl)ccc32)c(C)c1 (stereo not drawn) [Reference substance 1, Tolvaptan, reference compound], the “Proliferation inhibition grading, Repeated experiment I” value (LLC-PK1 cells) was “++”, the “Proliferation inhibition grading, Repeated experiment II” value (LLC-PK1 cells) was “++” and the “hook effect in AVP-induced LLC-PK1 cell proliferation” value (LLC-PK1 cells) was “high-concentration pro-proliferative hook effect”. The IC50 (human V1bR) was greater than 10 µM, the Ki (human V1bR; read-out: Binding affinity V1bR, N = 1, isotope-labeled vasopressin […], experiment 1, bound printed in μM) was greater than 10 µM and the Ki (human V1bR; [3]) was greater than 10 µM. The Ki (human V1bR; read-out: Binding affinity V1bR, summary of the two experiments) was greater than 10 µM, the F [2] was 44% and the AUC(0-inf) [2] was 1.61 µg·h/mL. It also gave a Cmax [2] of 1.31 µg/mL and a half-life [2] of 1.58 h.
Molecule CN1CCC2CCN(C(=O)c3ccc(NC(=O)c4ccccc4C(F)(F)F)nc3)c3ccc(Cl)cc3[C@H]21 (stereo partly drawn) [Compound 3A] has an IC50 [1] of 0.0847 µM.
In the case of Cc1ccccc1C(=O)Nc1ccc(C(=O)N2CCC3COC3c3cc(Cl)ccc32)c(C)c1 (stereo not drawn) [Compound 6], the IC50 [1] is reported as 0.00385 µM.
Work on Cc1cc(NC(=O)c2ccccc2Cl)ccc1C(=O)N1CCC2CNC2c2cc(Cl)ccc21 (stereo not drawn) [Compound 7] yielded an IC50 [1] of 0.0927 µM.
With O=C(Nc1ccc(C(=O)N2CC[C@@H]3CCN[C@H]3c3cc(Cl)ccc32)cn1)c1ccccc1C(F)(F)F (single isomer, unassigned) [Compound 10A] the IC50 [1] was 0.031 µM, the “Proliferation inhibition grading, Repeated experiment I” value (LLC-PK1 cells) was “+++” and the “Proliferation inhibition grading, Repeated experiment II” value (LLC-PK1 cells) was “+++”. The IC50 (human V1bR) was greater than 10 µM, the Ki (human V1bR) was greater than 10 µM and the Ki (human V1bR; isotope-labeled vasopressin […], bound given in μM, read-out: Binding affinity V1bR, summary of the two experiments) was greater than 10 µM. It also gave a Ki (human V1bR; [3]) greater than 10 µM, an F [2] of 73.34% and an AUC(0-inf) [2] of 2.03 µg·h/mL. The Cmax [2] was 0.833 µg/mL, the half-life [2] was 4.44 h and the Ki (human V1aR; Binding affinity V1aR, N = 1, isotope-labeled vasopressin […], experiment 1) was 0.0197 µM. For the same molecule, the Ki (human V1aR; Binding affinity V1aR, N = 2, isotope-labeled vasopressin […], experiment 2) was 0.0111 µM, the Ki (human V1aR; isotope-labeled vasopressin […], mean ± spread, read-out: Binding affinity V1aR, mean of the two experiments) was 0.0154 ± 0.0043 µM and the “binding affinity for V2R compared with V1a (V1a/V2 selectivity)” value (human V2R) was “higher than that for V1a”. The Ki (human V2R; Binding affinity V2R, N = 1, isotope-labeled vasopressin 1 nM, experiment 1) was 0.0021 µM, the Ki (human V2R; Binding affinity V2R, N = 2, isotope-labeled vasopressin 1 nM, experiment 2) was 0.00276 µM and the Ki (human V2R; isotope-labeled vasopressin 1 nM, mean ± spread, read-out: Binding affinity V2R, mean of the two experiments) was 0.0024 ± 0.0003 µM.
For Cc1ccccc1C(=O)Nc1ccc(C(=O)N2CCC3CCNC3c3cc(Cl)ccc32)c(C)c1 (stereo not drawn) [Compound 1], the IC50 [1] was 0.0147 µM, the “dose-response compared with Tolvaptan” value (LLC-PK1 cells; AVP-induced LLC-PK1 cell proliferation) was “superior to that of Tolvaptan” and the “hook effect in AVP-induced LLC-PK1 cell proliferation” value (LLC-PK1 cells) was “no hook effect”.
With Cc1ccccc1C(=O)Nc1ccc(C(=O)N2CCC3CCOC3c3cc(Cl)ccc32)c(C)c1 (single isomer, unassigned) [Compound 4] the IC50 [1] was 0.00745 µM.
For O=C(Nc1ccc(C(=O)N2CCC3CCNC3c3cc(Cl)ccc32)cn1)c1ccccc1C(F)(F)F (stereo not drawn) [Compound 2], the IC50 [1] was 0.0326 µM.
